Key:
[1] = biological target: Dual specificity mitogen-activated protein kinase kinase 1 (Homo sapiens) (UniProt Q02750); test: Inhibition of human recombinant MAP2K1 at 500 nM in presence of ATP by radiometric assay relative to control
[2] = biological target: T1, Dual specificity mitogen-activated protein kinase kinase 6 (Homo sapiens) (UniProt P52564); test: Inhibition of human recombinant MAP2K6 at 500 nM related to control ULK1
T1 sequence (whole entry): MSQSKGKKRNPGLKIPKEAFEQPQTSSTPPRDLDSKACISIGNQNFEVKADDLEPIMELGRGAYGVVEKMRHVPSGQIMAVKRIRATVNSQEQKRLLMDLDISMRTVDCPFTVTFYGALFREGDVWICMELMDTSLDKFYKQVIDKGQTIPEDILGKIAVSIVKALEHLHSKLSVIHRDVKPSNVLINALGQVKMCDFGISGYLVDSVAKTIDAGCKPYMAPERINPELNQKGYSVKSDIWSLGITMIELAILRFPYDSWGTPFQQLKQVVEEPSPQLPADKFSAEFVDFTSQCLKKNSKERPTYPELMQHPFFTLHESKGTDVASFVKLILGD

[3] = biological target: G protein-coupled receptor kinase 5 (Homo sapiens) (UniProt P34947); test: Inhibition of human recombinant GPRK5 at 15 nM related to control ULK1
Chain of G protein-coupled receptor kinase 5 (Homo sapiens) (P34947 whole entry, looked up): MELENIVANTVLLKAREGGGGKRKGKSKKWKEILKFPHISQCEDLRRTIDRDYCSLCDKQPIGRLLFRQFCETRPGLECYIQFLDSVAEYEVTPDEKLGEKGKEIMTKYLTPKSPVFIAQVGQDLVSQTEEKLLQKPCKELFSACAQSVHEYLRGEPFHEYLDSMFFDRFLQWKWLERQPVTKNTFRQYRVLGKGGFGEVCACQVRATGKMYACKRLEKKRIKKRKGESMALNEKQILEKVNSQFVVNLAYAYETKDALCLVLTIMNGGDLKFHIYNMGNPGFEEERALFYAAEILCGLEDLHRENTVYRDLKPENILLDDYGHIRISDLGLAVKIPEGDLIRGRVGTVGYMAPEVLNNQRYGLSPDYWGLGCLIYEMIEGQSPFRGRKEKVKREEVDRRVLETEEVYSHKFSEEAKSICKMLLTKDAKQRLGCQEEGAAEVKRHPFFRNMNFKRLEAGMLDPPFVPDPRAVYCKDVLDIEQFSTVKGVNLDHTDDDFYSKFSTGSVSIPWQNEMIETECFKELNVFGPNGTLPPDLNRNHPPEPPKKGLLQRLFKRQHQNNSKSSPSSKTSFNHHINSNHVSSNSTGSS

[4] = biological target: T2, Serine/threonine-protein kinase TAO3 (Homo sapiens) (UniProt Q9H2K8); test: Inhibition of human recombinant TAO3 at 15 nM in presence of ATP by radiometric assay relative to control
T2 sequence (whole entry): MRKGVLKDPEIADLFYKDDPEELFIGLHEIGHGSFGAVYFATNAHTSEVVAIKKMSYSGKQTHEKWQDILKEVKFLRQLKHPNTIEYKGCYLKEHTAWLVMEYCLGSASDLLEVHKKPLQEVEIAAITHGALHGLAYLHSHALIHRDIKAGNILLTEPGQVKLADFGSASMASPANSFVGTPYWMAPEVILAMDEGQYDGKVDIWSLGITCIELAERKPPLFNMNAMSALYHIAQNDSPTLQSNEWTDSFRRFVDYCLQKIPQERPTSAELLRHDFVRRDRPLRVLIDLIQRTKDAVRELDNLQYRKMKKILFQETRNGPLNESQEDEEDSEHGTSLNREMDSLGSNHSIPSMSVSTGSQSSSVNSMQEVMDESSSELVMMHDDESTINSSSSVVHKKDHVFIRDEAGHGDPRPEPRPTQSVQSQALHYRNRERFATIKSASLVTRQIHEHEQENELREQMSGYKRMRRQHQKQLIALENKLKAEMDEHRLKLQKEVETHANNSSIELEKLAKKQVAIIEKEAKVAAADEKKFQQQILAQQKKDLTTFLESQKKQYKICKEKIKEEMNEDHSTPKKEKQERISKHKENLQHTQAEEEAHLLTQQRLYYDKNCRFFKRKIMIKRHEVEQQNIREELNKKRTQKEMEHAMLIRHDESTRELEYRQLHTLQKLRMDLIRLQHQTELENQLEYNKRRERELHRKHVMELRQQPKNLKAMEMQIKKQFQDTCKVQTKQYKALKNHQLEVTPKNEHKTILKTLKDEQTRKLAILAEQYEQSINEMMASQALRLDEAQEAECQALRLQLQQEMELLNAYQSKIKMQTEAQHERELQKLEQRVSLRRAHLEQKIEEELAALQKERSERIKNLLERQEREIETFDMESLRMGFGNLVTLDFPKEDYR

[5] = biological target: T3, Homeodomain-interacting protein kinase 4 (Homo sapiens) (UniProt Q8NE63); test: Inhibition of human recombinant HIPK4 at 15 nM in presence of ATP by radiometric assay relative to control
T3 sequence (whole entry): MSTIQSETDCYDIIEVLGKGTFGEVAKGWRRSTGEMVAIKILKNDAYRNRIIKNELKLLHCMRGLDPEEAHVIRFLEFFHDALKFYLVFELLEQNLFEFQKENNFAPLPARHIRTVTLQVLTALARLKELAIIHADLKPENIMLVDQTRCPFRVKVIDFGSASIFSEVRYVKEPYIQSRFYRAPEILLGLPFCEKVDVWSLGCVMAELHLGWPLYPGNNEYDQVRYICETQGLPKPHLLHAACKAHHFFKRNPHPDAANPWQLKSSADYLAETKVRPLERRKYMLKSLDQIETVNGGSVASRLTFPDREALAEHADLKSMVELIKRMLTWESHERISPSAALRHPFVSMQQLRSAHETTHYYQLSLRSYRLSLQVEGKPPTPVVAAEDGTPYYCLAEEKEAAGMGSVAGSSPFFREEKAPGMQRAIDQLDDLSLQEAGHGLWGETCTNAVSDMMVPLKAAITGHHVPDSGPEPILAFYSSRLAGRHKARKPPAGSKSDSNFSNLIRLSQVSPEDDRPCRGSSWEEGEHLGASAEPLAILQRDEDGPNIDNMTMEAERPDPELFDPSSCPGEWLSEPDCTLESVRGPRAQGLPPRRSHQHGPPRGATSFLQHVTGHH

[6] = biological target: Maternal embryonic leucine zipper kinase (Homo sapiens) (UniProt Q14680); test: Inhibition of human recombinant MELK at 40 nM in presence of ATP by radiometric assay relative to control
Chain of Maternal embryonic leucine zipper kinase (Homo sapiens) (Q14680 whole entry, looked up): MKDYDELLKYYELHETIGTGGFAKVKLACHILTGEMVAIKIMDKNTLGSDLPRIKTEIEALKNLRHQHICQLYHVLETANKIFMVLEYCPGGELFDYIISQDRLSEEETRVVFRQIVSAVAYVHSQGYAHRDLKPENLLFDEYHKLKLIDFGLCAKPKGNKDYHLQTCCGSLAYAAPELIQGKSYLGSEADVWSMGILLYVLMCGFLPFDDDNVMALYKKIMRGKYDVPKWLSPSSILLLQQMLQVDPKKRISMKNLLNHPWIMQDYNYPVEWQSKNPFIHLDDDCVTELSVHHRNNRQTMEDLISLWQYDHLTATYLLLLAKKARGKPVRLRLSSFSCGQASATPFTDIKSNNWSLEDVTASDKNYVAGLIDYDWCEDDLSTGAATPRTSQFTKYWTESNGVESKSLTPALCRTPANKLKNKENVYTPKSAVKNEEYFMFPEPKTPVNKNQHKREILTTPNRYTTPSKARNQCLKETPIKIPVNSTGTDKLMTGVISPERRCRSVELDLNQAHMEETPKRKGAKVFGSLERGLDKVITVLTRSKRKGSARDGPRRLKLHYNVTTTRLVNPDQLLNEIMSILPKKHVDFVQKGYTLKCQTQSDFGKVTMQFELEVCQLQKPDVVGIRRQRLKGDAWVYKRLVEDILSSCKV

[7] = biological target: Cyclin-dependent kinase-like 3 (Homo sapiens) (UniProt Q8IVW4); test: Inhibition of human recombinant CDKL3 at 40 nM in presence of ATP by radiometric assay relative to control
Chain of Cyclin-dependent kinase-like 3 (Homo sapiens) (Q8IVW4 whole entry, looked up): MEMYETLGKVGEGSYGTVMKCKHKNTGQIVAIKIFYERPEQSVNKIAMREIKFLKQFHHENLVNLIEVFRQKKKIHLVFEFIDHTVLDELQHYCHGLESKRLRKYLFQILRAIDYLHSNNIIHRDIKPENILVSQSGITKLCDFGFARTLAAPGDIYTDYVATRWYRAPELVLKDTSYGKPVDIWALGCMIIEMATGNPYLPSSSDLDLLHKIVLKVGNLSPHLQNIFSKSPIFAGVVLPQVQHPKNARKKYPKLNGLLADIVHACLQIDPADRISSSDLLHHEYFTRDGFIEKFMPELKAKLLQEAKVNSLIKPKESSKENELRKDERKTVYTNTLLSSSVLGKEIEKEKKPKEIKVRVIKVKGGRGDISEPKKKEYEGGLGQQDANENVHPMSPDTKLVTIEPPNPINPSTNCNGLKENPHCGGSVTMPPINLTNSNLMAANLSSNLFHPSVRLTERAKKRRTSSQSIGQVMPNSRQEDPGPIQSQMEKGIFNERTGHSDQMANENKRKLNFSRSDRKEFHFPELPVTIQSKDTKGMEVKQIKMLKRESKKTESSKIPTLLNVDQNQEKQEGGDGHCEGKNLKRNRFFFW

Chain of Dual specificity mitogen-activated protein kinase kinase 1 (Homo sapiens) (Q02750 whole entry): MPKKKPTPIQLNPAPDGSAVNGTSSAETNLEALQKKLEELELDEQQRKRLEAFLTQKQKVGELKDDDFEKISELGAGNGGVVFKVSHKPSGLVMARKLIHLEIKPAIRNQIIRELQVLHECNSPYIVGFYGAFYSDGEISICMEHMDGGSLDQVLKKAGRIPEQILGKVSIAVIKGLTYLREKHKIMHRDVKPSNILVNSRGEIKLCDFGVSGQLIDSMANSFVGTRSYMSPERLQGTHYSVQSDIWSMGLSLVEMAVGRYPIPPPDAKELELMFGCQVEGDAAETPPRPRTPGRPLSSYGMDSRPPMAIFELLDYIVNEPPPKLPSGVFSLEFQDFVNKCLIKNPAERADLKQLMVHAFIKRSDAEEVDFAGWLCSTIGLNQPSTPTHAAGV

CNC(=O)c1ccccc1Oc1nc(Nc2cc(OC)c(OC)c(OC)c2)ncc1Br
inhibition [1]: 0%
fold change (FC) [2]: 0.07

CC(C)[C@H](NC(=O)c1cc(-c2cnn3cc(-c4ccc(OCCN5CCCCC5)cc4)cnc23)cs1)C(F)(F)F
fold change (FC) [3]: 0
inhibition [4]: 1%
inhibition [5]: 0%

O=C(N[C@@H](C1CC1)C(F)(F)F)c1cc(-c2cnn3cc(-c4ccc(F)cc4)cnc23)cs1
inhibition [6]: 20%
inhibition [7]: 39%

— ChEMBL document CHEMBL5653631, “A Potent and Selective ULK1 Inhibitor Suppresses Autophagy and Sensitizes Cancer Cells to Nutrient Stress” (iScience, 2018)
